A short description of data set [1]: Log D at pH 7.4 (chromatographic procedure). To be noted: n-octanol / aqueous buffer pH 7.4, pH 7.4. The format is physicochemical. The method, then: Log D at 7.4, which is a partition coefficient between n-octanol and aqueous buffer pH 7.4 of the compounds was measured on the chromatographic procedure whose condition was developed based on a published method.[35]

Data set [2] can be described thus: In vitro metabolic stability assay in HLM. In kind it is in vitro ADME, human. To be noted: for CLint scaled at 1 h: read-out: Liver Microsome CLint, pred. The method, then:
At 0, 5, 15, 30, 45, and 60 min, 200 μL acetonitrile (with the internal standard diclofenac as 10 μg/mL) was added to terminate the reaction, the remaining compound was analyzed by HPLC-MS/MS.
(Liver microsomes are a subcellular fraction often used to study metabolism.)

The nature of data set [3]: Cell toxicity assay (CCK-8), HEK293T. In kind it is cell-based. The conditions noted are these: human, HEK293T cells; 72 h (3-days) treatment, n = 3; read-out: CC50 HEK293T (Cellular IC50, 3-days incubation). How it is done: Approximately 1 × 10^4 JURKAT, MOLM-13, MV4-11 and HEK293T cells in RPMI 1640 (no phenol red) (100 μL) were added to a 96-well plate and treated with DMSO or a compound at indicated concentrations for 72 h or 8 days. Cell viability was measured using the CCK-8 kit (Abcam, ab228554) according to the manufacturer’s instructions.

Another data set deals with MV4-11 cells. Kind of data set: Anti-proliferation assay, MV4-11. The format is cell-based. To be noted: Homo sapiens, MV4-11, 336 h, approximately 2 weeks, read-out: inhibition of MV4-11 cell proliferation. The method, then: (§1) Cell proliferation assays were carried out in a 96-well tissue culture plate at 2 × 10^4 cells/well for all cell lines except in 200 μL with a compound added as 1:1000 dilution of DMSO stocks in triplicate. Culture density was determined every 3–4 days using the countess automated cell counter, after which 2 × 10^4 live cells were reseeded in fresh media and compound. The cumulative cell count was achieved by back calculation.

A further data set concerns MOLM-13 cells. Kind of data set: Anti-proliferation assay, MOLM-13. In kind it is cell-based. To be noted: Homo sapiens, MOLM-13, 336 h, approximately 2 weeks, read-out: inhibition of MOLM-13 cell proliferation. How it is done:
as §1

A further data set deals with MOLM-13-Luc cells. The experiment in a line: Antitumor analysis in MOLM-13-Luc xenografted NSG mice. The format is in vivo. An excerpt: (§2) Animal studies were approved by the Texas A&M’s Institutional Animal Care and Use Committees. The 5 week-old female NSG mice (NOD.Cg-PrkdcscidIl2rgtm1Wjl/SzJ, Jackson Laboratory #005557) were ordered and kept under pathogen-free conditions for 1 week with free access to food and water after arrival for acclimation. Tumor models in these mice were then built by engrafting 1 × 10^6 MOLM-13-Luc cells (BPS Bioscience, 78372) through tail vein injection. Tumors were allowed to grow for 6 days, and then applied for treatment by oral gavage daily (day 0 was the beginning of treatment). Dosage of 200 or 400 mg/kg (vehicle of 5% DMSO, 45% PEG400, 2.5% Tween 80, and 47.5% water) was applied. Tumor growth was evaluated by bioluminescent imaging (BLI) using an IVIS In Vivo Imaging System by intraperitoneal injection of 150 mg/kg D-Luciferin potassium salt (MedChemExpress, HY-12591B). Their body weights were recorded every 2–3 days. Surviving mice were counted every day and the mortality was calculated. No animal was excluded from any of the analyses. The investigators were not blinded to allocation during experiments and outcome assessment.

The target in the next data set is T1, ENL (Homo sapiens, UniProt Q03111).
T1 construct: CETSAs of ENL in MOLM-13 (top) and MV4-11 (bottom) cells; endogenous in cells; host or cells: MOLM-13 and MV4-11
T1 sequence (Q03111 1-559): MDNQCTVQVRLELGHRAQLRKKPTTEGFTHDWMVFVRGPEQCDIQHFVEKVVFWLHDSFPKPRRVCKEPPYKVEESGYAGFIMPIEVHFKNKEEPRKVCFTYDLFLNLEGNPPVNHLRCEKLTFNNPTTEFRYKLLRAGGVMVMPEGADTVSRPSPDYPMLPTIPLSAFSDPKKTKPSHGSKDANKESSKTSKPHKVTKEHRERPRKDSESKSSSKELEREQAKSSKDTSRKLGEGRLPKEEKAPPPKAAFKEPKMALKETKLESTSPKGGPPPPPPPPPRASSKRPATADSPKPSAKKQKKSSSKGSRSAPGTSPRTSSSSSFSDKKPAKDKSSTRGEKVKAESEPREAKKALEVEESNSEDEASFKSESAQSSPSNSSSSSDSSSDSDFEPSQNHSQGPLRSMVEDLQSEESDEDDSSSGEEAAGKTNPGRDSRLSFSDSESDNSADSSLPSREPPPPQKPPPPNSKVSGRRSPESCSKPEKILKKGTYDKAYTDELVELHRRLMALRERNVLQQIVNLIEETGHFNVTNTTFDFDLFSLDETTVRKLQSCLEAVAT
The experiment in a line: Cellular thermal shift assay (CETSA). The conditions noted are these: MOLM-13 and MV4-11 cells, 10 μM, 3 and 6 h. The format is cell-based. The method, then:
MOLM-13 and MV4-11 were incubated with 10 μM of inhibitor 13 for 3 and 6 h, respectively. The cells were then collected and washed with PBS 3 times. The cell pellets were resuspended in PBS-containing protease inhibitors and aliquoted into PCR microtubes (approximately 3 million cells in 54 μL). Cells were heated at indicated temperatures for 3 min in a thermal cycler (Bio-Rad) and then incubated at room temperature for 2 min. A total of 6 μL of 10× cell lysis buffer (8% NP-40, 50% glycerol, and 10 mM dithiothreitol) was added to each sample before subjecting the sample to three freeze–thaw cycles by liquid nitrogen and 37 °C water bath incubations to lyse the cells. The cell lysates were centrifuged at 13,000 rpm at 4 °C for 10 min, and the supernatants were analyzed using SDS-PAGE and Western blotting.

Data set [4] in a line: Body weight of xenografted NSG mice under treatment. The format is in vivo.
Description: as §2

[5] abbreviates: human, human liver microsomes, pH 7.4, HLM 0.5 mg/mL, NADPH 1 mM, mean ± SD, n = 3.
Where [6] appears, read: human, human liver microsomes, pH 7.4, HLM 0.5 mg/mL, NADPH 1 mM, mean ± SD, n = 3, read-out: Liver Microsome t1/2.

Data on two compounds can be found in paper PMC11613437, “Prioritization of Eleven-Nineteen-Leukemia Inhibitors as Orally Available Drug Candidates for Acute Myeloid Leukemia” (Journal of Medicinal Chemistry, 2024).

For the compound `CC(C)[C@H]1CCN1Cc1cc2cnc(NC(=O)c3ccc4nncn4c3)cc2[nH]1` [SR-C-107 (R), (R)-N-(2-((2-Isopropylazetidin-1-yl)methyl)-1H-pyrrolo[3,2-c]pyridin-6-yl)-[1,2,4]triazolo[4,3-a]pyridine-6-carboxamide], the chromatographic logD in data set [1] was determined as 0.97. In data set [2] (HLM 0.5 mg/mL, NADPH 1 mM, mean ± SD, n = 3), the “Liver Microsome t1/2” value amounted to 6.9717 ± 0.6597 h. In data set [2] (setting [5]), the CLint scaled at 1 h was found to be 4.18 mL/min/kg. Further, the half-life in data set [2] (setting [6]) turned out to be 6.97 h. Besides, the half-inhibitory concentration (IC50) at 72 h in data set [3] was above 64 µM. In addition, the inhibition at 1 µM in the data set with MV4-11 cells was around 70%; in the data set on MOLM-13 cells, around 90%. The “tumor growth inhibition (TGI)” value in the data set on MOLM-13-Luc cells (200 mg/kg PO QD, after 8 days of treatment) worked out at 49.5%; in the data set on MOLM-13-Luc cells (200 mg/kg PO QD, day 12), 45%. This compound registered a median survival time in the data set with MOLM-13-Luc cells (200 mg/kg PO QD, vehicle 10) of 15 days post-treatment. Also, at ENL, the “CETSA: thermal stability of ENL vs DMSO at elevated temperatures” value is “higher abundance of ENL”. Moreover, the “tolerability / body weight loss” value in data set [4] (200 mg/kg PO QD) is recorded as “no significant body weight loss observed”.
The compound `CC(C)C1CCN1Cc1ccc(CNC(=O)c2ccc3nncn3c2)cc1` (stereo not shown) [inhibitor 13] gave a chromatographic logD in data set [1] of 0.31. Further, the CLint scaled at 1 h in data set [2] (setting [5]) was 4.09 mL/min/kg. In data set [2] (setting [6]), the half-life at 1 h stood at 7.11 ± 0.663 h. For the same compound, the “parent compound remaining after 60 min incubation in HLM” value in data set [2] (in the presence of NADPH, 60 min) was “over 90%”. The IC50 at 72 h in data set [3] is above 64 µM. Also, the inhibition at 1 µM was 41% with MV4-11 cells and 30% in the data set with MOLM-13 cells. Also, the figures for the inhibition at 10 µM with MV4-11 cells (10 μM) and in the data set on MOLM-13 cells (10 μM) were 75% and 85%, respectively. The tumor reduction result with MOLM-13-Luc cells (200 mg/kg PO QD) is “no noticeable tumor reduction”. Moreover, the “increase in median survival” value in the data set on MOLM-13-Luc cells (400 mg/kg PO QD vs control) was determined as 33.3%. For the same compound, in the data set with MOLM-13-Luc cells (400 mg/kg PO QD, after 13 days of treatment, vs control), the “tumor growth inhibition (TGI)” value was around 45%. Besides, in the data set on MOLM-13-Luc cells (400 mg/kg PO QD, control 15), the median survival amounted to 20 post-treatment days. Further, the “CETSA: thermal stability of ENL vs DMSO at elevated temperatures” value on ENL was “higher abundance of ENL”. The “tolerability / body weight loss” value is reported as “no significant body weight loss observed” in data set [4] (200 mg/kg PO QD) and “without significant body weight loss until day 15” in data set [4] (400 mg/kg PO QD).

As usually defined, the chromatographic logD is lipophilicity estimated from chromatographic retention. As usually defined, the IC50 is the midpoint of a concentration-inhibition curve.
